Source: patent US6800659B2, “Compounds for modulating cell proliferation” (HSC Research and Development Limited Partnership, priority 2000, dated 2004)

Experiments:
[1] = tested on: Philadelphia positive acute lymphoblastic leukemia (Ph+ ALL) cells; assay: Colony growth of Philadelphia positive ALL cells in methylcellulose culture; type: cell-based, human
Description: Ph+ ALL cells were plated in 1 ml volumes, in the absence of exogenous growth factors, into 35 mm petri dishes (Nunc, Gibco) containing alpha MEM (Gibco) plus 10% FCS (Cansera Rexdale, ON.) in 0.9% (vol/vol) methylcellulose (Fluka, Switzerland) with the indicated concentrations of CR4. Cultures were set at 37° C., 5% CO2 in a humidified atmosphere. Colonies consisting of more than 20 cells were counted at 12 days or earlier using an inverted microscope.
ALL cells were plated in 1 ml volumes, in the absence of exogenous growth factors, into 35 mm petri dishes (Nunc, Gibco) containing alpha MEM (Gibco) plus 20% FCS (Cansera Rexdale, ON.) in 0.9% (vol/vol) methylcellulose (Fluka, Switzerland) and the indicated concentrations of compound Cultures were set at 37° C., 5% CO2 in a humidified atmosphere Colonies consisting of more than 20 cells were counted at 12 days or earlier using an inverted microscope.
ALL cells were plated in 1 ml volumes, in the absence of exogenous growth factors, into 35 mm petri dishes (Nunc, Gibco) containing alpha MEM (Gibco) plus 20% FCS (Cansera Rexdale, ON) in 0.90% (vol/vol) methylcellulose (Fluka, Switzerland) and the indicated concentrations of compound. Cultures were set at 37° C., 5% CO2 in a humidified atmosphere. Colonies consisting of more than 20 cells were counted at 12 days or earlier using an inverted microscope.
ALL cells were plated in 1 ml volumes, in the absence of exogenous growth factors, into 35 mm petri dishes (Nunc, Gibco) containing alpha MEM (Gibco) plus 20% FCS (Cansera Rexdale, ON.) in 0.9% (vol/vol) methylcellulose (Fluka, Switzerland) and the indicated concentrations of CR24. Cultures were set at 37° C., 5% CO2 in a humidified atmosphere. Colonies consisting of more than 20 cells were counted at 9 days or earlier using an inverted microscope.
ALL cells were plated in 1 ml volumes, in the absence of exogenous growth factors, into 35 mm petri dishes (Nunc, Gibco) containing alpha MEM (Gibco) plus 20% FCS (Cansera Rexdale, ON.) in 0.9% (vol/vol) methylcellulose (Fluka, Switzerland) and the indicated concentrations of CR19. Cultures were set at 37° C., 5% CO2 in a humidified atmosphere. Colonies consisting of more than 20 cells were counted at 9 days or earlier using an inverted microscope.

OCl-LY2 lymphoma cells = assay: In vitro purging of OCl-Ly2 lymphoma cells; type: cell-based; settings: 5 hours exposure (FIG. 16)
Description: For the purging assay, the cells were resuspended in complete medium with or without CR4 as indicated and incubated at 37° C., 5% CO2 for 0-5 hours. Cells were then washed thoroughly with medium to remove CR4, resuspended and plated in 1 ml volumes at 5×10^3 cells/ml, in the absence of exogenous growth factors, into 35 mm petri dishes (Nunc, Gibco) containing IMDM (OCl, Toronto) plus 20% human cord blood plasma in 0.9% (vol/vol) methylcellulose (Fluka, Switzerland). Cultures were set at 37° C., 5% CO2 in a humidified atmosphere. Colonies consisting of more than 20 cells were counted at 5 days or earlier using an inverted microscope.

N#C/C(=C\C=C\c1ccc(O)c(O)c1)C(=O)NCc1ccccc1 [CR4, (E,E)-2-(benzylaminocarbonyl)-3-(3,4-dihydroxystyryl)acrylonitrile]
wipeout of bcr-abl transformed Philadelphia positive cells ([1]; concentrations as low as 40 nM): > 90%
inhibition of Ph+ ALL cell proliferation and survival ([1]; low nanomolar doses (35-100), colonies at 12 days (FIG. 2)): significant inhibition
killing of OCl-Ly2 cells (OCl-LY2 lymphoma cells; 12.5 μM): significant killing
killing of OCl-Ly2 cells (OCl-LY2 lymphoma cells; 25-50 μM): 90%
